Values joined by “and” are separate entries in the source; they are usually repeats but may differ in a detail not shown here. Equal values may be shown once.
Experiments:
[1] = tested on: SARS-COV-2 virus (USA WA1/2020); assay: ACE2 mouse model, lung tissue RT-qPCR viral titer; assay type: in vivo; settings: K18-hACE2 mice; for Lung Tissue RT-qPCR Viral Titer Log10, Group Mean: Day 6, 7 animals
[2] = tested on: SARS-COV-2 virus (USA WA1/2020); assay: ACE2 mouse model, TCID50 analysis of lung samples; assay type: in vivo; settings: K18-hACE2 mice, Day 6 lung; for Titer, TCID50 analysis of lung samples, Group Mean: 7 animals; for Titer, TCID50 analysis of lung samples, individual animals: scored on Vero C1008 (E6) cells after 120 hours
[3] = tested on: Vero 76 cells
[4] = tested on: Calu-3; assay: Cytotoxicity of Imatinib in Calu-3 cells; settings: any concentration tested (up to 100 μM)
[5] = tested on: SARS-COV-2 (USA-WA1/2020 Isolate); assay type: cell-based; settings: Calu-3 cells, Mebendazole 2.3 nM-5000 nM
[6] = tested on: human lung cancer (Calu-3) cells
[7] = cited from earlier work
[8] = in vitro; settings: human
[9] = pre-clinical models, oral administration; cited from earlier work
[10] = Day 6, 50 mg/kg/day Mebendazole and/or 100 mg/kg/day Imatinib, oral gavage once daily

Structure (SMILES): Cc1ccc(NC(=O)c2ccc(CN3CCN(C)CC3)cc2)cc1Nc1nccc(-c2cccnc2)n1 [Imatinib]
- Lung Tissue RT-qPCR Viral Titer Log10, Group Mean [1]: 7.8
- Lung Tissue RT-qPCR Viral Titer Log10, individual animals [1, 10]: 7.9 (2×) and 8.0 and 7.3 and 8.5 and 7.6 and 7.7
- Lung Tissue RT-qPCR Viral Titer, individual animals [1, 10]: 7.80E+07 and 9.13E+07 and 2.15E+07 and 7.53E+07 and 3.12E+08 and 3.67E+07 and 5.37E+07
- Titer, TCID50 analysis of lung samples, Group Mean [2]: 7.4 Log10 TCID50/mL
- Titer, TCID50 analysis of lung samples, individual animals [2]: 8.0 Log10 TCID50/mL and 6.5 Log10 TCID50/mL and 8.3 Log10 TCID50/mL and 7.5 Log10 TCID50/mL and 5.3 Log10 TCID50/mL and 7.6 Log10 TCID50/mL and 8.5 Log10 TCID50/mL
- cytotoxicity [3]: no cytotoxicity was observed
- cytotoxicity [4]: no cytotoxicity was observed

Structure (SMILES): COC(=O)Nc1nc2ccc(C(=O)c3ccccc3)cc2[nH]1 [Mebendazole]
- Inhibition of SARS-COV-2 (maximum reached) [5]: 100%
- Lung Tissue RT-qPCR Viral Titer Log10, Group Mean [1]: 7.6
- Titer, TCID50 analysis of lung samples, Group Mean [2]: 5.8 Log10 TCID50/mL
- Titer, TCID50 analysis of lung samples, individual animals [2]: 6.0 Log10 TCID50/mL and 5.3 Log10 TCID50/mL (2×) and 4.8 Log10 TCID50/mL and 5.5 Log10 TCID50/mL and 7.3 Log10 TCID50/mL and 6.5 Log10 TCID50/mL
- inhibition of cell viability ([6]; all tested concentrations up to 5000 nM): ~0%
- CC50 ([6]; read-out: CC50 (cytotoxic concentration), estimated from absence of cytotoxicity up to 5000 nM): > 5 µM
- plasma concentrations ([7]; 100 mg twice daily for three consecutive days): ≤ 0.03 μg/mL and ≤ 0.1 μM
- higher exposure to steady-state ([7]; long-term oral administration): ~3 fold
- oral dose excreted in urine ([7]; oral dose): < 2%
- oral bioavailability ([7]; reported): 17%
- CC50 [8]: > 5 µM
- bioavailability [9]: about 15%

Source: patent publication US20250281461A1 (The Board of Supervisors of Louisiana State University and …, priority 2021, published 2025)
